The record followed here is ChEMBL document CHEMBL1133581, “Synthesis and in vitro and in vivo functional studies of ortho-substituted phenylpiperazine and N-substituted 4-N-(o-methoxyphenyl)aminopiperidine analogues of WAY100635” (J Med Chem, 2000).

For test [1], the species on record is Rattus norvegicus.
The species named for test [2] is Rattus norvegicus. The source holds these as a separate data set.
Description: Ability to counteract the 8-OH-DPAT (1 mg/kg sc)-induced Hypothermia in rats (n=4) and evaluated for the decrease in body temperature (degrees Celsius) at 0.1(micro mol/kg)
For test [3], the species on record is Rattus norvegicus. The source holds these as a separate data set.
Description: Ability to counteract the 8-OH-DPAT (1 mg/kg sc)-induced Hypothermia in rats (n=4) and evaluated for the decrease in body temperature (degrees Celsius) at 1.0(micro mol/kg)
Test [4] has as its target T1, 5-hydroxytryptamine receptor 1A (Rattus norvegicus, UniProt P19327).
T1 sequence (P19327 whole entry): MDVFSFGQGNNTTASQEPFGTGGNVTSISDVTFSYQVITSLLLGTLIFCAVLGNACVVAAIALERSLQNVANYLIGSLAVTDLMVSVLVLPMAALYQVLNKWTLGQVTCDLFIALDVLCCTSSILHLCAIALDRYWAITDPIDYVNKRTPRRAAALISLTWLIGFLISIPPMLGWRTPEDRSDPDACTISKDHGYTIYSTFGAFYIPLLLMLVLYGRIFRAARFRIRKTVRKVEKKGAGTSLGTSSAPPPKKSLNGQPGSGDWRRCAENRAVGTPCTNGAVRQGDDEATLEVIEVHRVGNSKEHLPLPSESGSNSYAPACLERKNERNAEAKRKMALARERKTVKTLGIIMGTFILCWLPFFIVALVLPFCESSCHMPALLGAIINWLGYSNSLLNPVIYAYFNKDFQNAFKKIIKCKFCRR
Put plainly: biochemical.
Description: In vitro affinity against 5-hydroxytryptamine 1A receptor using [3H]-8-OH-DPAT in rat hippocampus

For the next test, the species on record is Cavia porcellus. Put plainly: tissue or blood. The conditions noted are these: Ileum, read-out: pA2 (converted).
For test [5], the species on record is Rattus norvegicus. The source holds these as a separate data set.
Description: Ability to counteract the 8-OH-DPAT (1 mg/kg sc)-induced Hypothermia in rats (n=4) and evaluated for the decrease in body temperature (degrees Celsius) at 10(micro mol/kg)

A word on the IC50: it is the concentration needed to halve the response being measured. Lower therefore signals greater potency.

Description for Cavia porcellus: Ability to antagonize the 8-OH-DPAT-induced contractions of a strip of guinea pig ileum tissue

Regarding `CCCN(CCC)C1CCc2cccc(O)c2C1` (stereo not drawn) [8-OH-DPAT], the Vocalization time in the test listed under Rattus norvegicus [1] stood at 4.9 s. This compound also showed a Decrease in the test listed under Rattus norvegicus [2] of 2 °C.
`O=C(C1CCCCC1)N(CCN1CCN(c2ccccc2O)CC1)c1ccccn1`: the Decrease in the test filed under Rattus norvegicus [3] was determined as 0.2 °C; in the test filed under Rattus norvegicus [5] it was 0.3 °C; in the test filed under Rattus norvegicus [2], 0.6 °C. Further, in test [4], half-maximal inhibition (IC50) required 2.1 nM. For the same compound, the Vocalization time in the test listed under Rattus norvegicus [1] stood at 166 s. Further, the Kb in the test filed under Cavia porcellus is 10 nM.
On to `O=C(C1CCCCC1)N(CCN1CCN(c2ccccc2OCCF)CC1)c1ccccn1`, for which the Decrease in the test listed under Rattus norvegicus [3] came to 1.1 °C; in the test listed under Rattus norvegicus [5] it was 0.4 °C; in the test listed under Rattus norvegicus [2], 1.8 °C. Further, in test [4], the concentration for half-maximal inhibition (IC50) stood at 1.55 nM. The same compound yielded a Vocalization time in the test filed under Rattus norvegicus [1] of 164 s. In addition, the Kb in the test listed under Cavia porcellus was 3.16 nM.
With `CS(=O)(=O)Oc1ccccc1N1CCN(CCN(C(=O)C2CCCCC2)c2ccccn2)CC1`, the figures for the Decrease in the test filed under Rattus norvegicus [3], in the test filed under Rattus norvegicus [5] and in the test filed under Rattus norvegicus [2] were 0.5 °C, 0.4 °C and 1.1 °C, respectively. The compound also gave an IC50 in test [4] of 7.25 nM. The compound also yielded a Vocalization time in the test filed under Rattus norvegicus [1] of 167 s. For the same compound, the Kb in the test listed under Cavia porcellus is 2.51 nM.
For `O=C(C1CCCCC1)N(CCN1CCN(c2ccccc2OS(=O)(=O)C(F)(F)F)CC1)c1ccccn1`, the Decrease in the test listed under Rattus norvegicus [3] was determined as 0 °C; in the test filed under Rattus norvegicus [5], 0.3 °C; in the test listed under Rattus norvegicus [2], 1.5 °C. This compound also gave an IC50 in test [4] of 36 nM. Further, the Vocalization time in the test filed under Rattus norvegicus [1] was determined as 146 s. In addition, the Kb in the test listed under Cavia porcellus is 20 nM.
Regarding `O=C(C1CCCCC1)N(CCN1CCN(c2ccccc2OCCCF)CC1)c1ccccn1`, the Decrease in the test listed under Rattus norvegicus [3] was 0.6 °C; in the test listed under Rattus norvegicus [5] it was 0.5 °C; in the test listed under Rattus norvegicus [2], 2.4 °C. This compound came in with an IC50 in test [4] of 6.05 nM. In the test listed under Rattus norvegicus [1], this compound returned a Vocalization time of 171 s. Besides, the Kb in the test listed under Cavia porcellus is 5.01 nM.
Consider `COc1ccccc1N(C)C1CCN(CCN(C(=O)C2CCCCC2)c2ccccn2)CC1`, for which the IC50 in test [4] came out at 1290 nM.
